Source: paper PMC3315146 (The Journal of General Physiology, 2012)
Positions count from the first letter of the chain named.

Key:
wt-Kcv = target: T1, wt-Kcv (Paramecium bursaria Chlorella virus 1, UniProt Q84568); test: MTSET control, single-channel conductance of wt-Kcv; format: biochemical, chlorella virus PBCV-1; settings: 0.2 mM cis MTSET
T1 sequence (Q84568 1-94): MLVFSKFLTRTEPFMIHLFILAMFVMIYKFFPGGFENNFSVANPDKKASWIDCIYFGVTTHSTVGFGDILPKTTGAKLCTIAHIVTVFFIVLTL

KcsA Y82C = settings: reverse direction unchanged, ref Heginbotham et al., 1999; cited from earlier work
Kcv L70C = target: T2, Kcv L70C (Paramecium bursaria Chlorella virus 1, UniProt Q84568, L70C); test: MTSET cysteine modification, single-channel conductance of L70C; format: biochemical, chlorella virus PBCV-1; settings: for conductance reduced by: L70C, 0.2 mM cis MTSET for 5 min
T2 sequence (Q84568 1-94 L70C): T1 sequence (Q84568 1-94) with L70C

Question: For C[N+](C)(C)CCSS(C)(=O)=O [MTSET, (2-(trimethylammonium)ethyl) methanethiosulfonate], which conductance change (wt-Kcv) is on record?
Answer: The conductance change was “did not observe the conductance change”.

Question: And the “reduction of cis to trans current” value (KcsA Y82C)?
Answer: Its value is 60%.

Question: What about the “conductance reduced by” value (Kcv L70C; 60 mV) of the same compound?
Answer: The value was 30%.

Question: And the “conductance reduced by” value (Kcv L70C; −60 mV)?
Answer: Its value is 78%.

Question: What about the effect on conductance (Kcv L70C; MTSET added in the trans solution (not depicted)) of the same compound?
Answer: Its effect on conductance is “not found to reduce the conductance”.
